Reference: patent US20180289780A1, “OSTEOPONTIN AND THROMBIN-CLEAVED FRAGMENT THEREOF AND THEIR USE IN ATHEROSCLEROSIS PREVENTION, INFLAMMATION REDUCTION AND IMPROVING PLAQUE STABILITY” (CardioVax, LLC, priority 2017, published 2018)

How the values were obtained:
[1] = test system: tcOPN-PADRE peptide, PADRE peptide, tcOPN protein or OPN protein; experiment: Antibody ELISA on plasma of immunized mice; assay type: in vivo; conditions: plasma of immunized ApoE-/- mice
Protocol: tcOPN-PADRE peptide, PADRE peptide, tcOPN protein or OPN protein was used for coating (20 μg/mL of each in PBS) microtiter plates (Nunc MaxiSorp, Nunc) over night at 4° C. Coated plates were washed with PBS with 0.05% Tween-20 and thereafter blocked with SuperBlock in Tris-buffered saline (TBS, Pierce) during 30 minutes at room temperature (RT) followed by an incubation of mouse plasma diluted 1:100 or 1:1000 in PBS-0.05% Tween-20 for 2 hours at RT. After rinsing, bound antibodies were detected using biotinylated goat anti-mouse IgGla or IgG2 antibodies (Jackson ImmunoResearch) that were incubated for 2 hours at RT. After washing, alkaline phosphatase-conjugated streptavidin (Sigma) was added and color reaction was developed using phosphatase substrate kit (Pierce). The absorbance (405 nm) was measured after 1 hour of incubation at room temperature. Mean values were calculated after subtraction of background absorbance.

ApoE-/- mice [2] = experiment: Plasma cytokine levels (Bioplex multiplex) in immunized ApoE-/- mice on HFD; assay type: in vivo; conditions: mean ± SD
Source text: (§1) Female C57BL/6 Apoe^-/- mice (Jaxmice, USA) were immunized with tcOPN-PADRE or equal amounts of PADRE peptide using Alum (Pierce) as adjuvant, followed by two booster injections after two and five weeks (FIG. 1B). During the advanced study all mice received a final booster one weak prior to termination in order to analyze the effect on immune cells (FIG. 1B). Mice were fed a high-fat diet (HFD), 21% cocoa fat, 0.15% cholesterol, starting one week after the last booster injection. For early assessment of atherosclerosis mice were kept on HFD during 8 weeks before sacrifice. Mice that were allowed to develop a more advanced stage of atherosclerosis were kept on HFD during 15 weeks (FIG. 1B). For early atherosclerosis assessment two different lengths of immunized tcOPN-PADRE peptides (SEQ ID Nos: 6 and 7) were evaluated, while for advanced atherosclerosis assessment mice were immunized with shorter tcOPN-PADRE (SEQ ID No: 6) which was based on a tcOPN of 11 amino acids (SEQ ID NO: 4). Tissue was preserved as described previously. All animal experiments were approved by the Animal Care and Use Committee. Cytokine levels for IL-1β, IL-2, IL-4, IL-5, IL-6, IL-10, IL-13, IL-17, IL-12(p70), IFNγ, TNFα and MCP-1 were analyzed in plasma using Bioplex multiplex technology (Bio-Rad) according to manufacturer's protocol. Plasma levels for OPN and tcOPN were analyzed by ELISA according to manufacturer's protocol (IBL International). Plasma cholesterol was quantified colorimetrically using Infinity Cholesterol (ThermoTrace).

ApoE-/- mice [3] = experiment: Atherosclerotic plaque area: en face descending aorta, aortic arch, subvalvular lesions; assay type: in vivo; conditions: additional early study, short peptide, HFD 8 weeks
Source text: as §1, with “All animal experiments were approved by the Animal Care and Use Committee.” left out, “Plasma cholesterol was quantified colorimetrically using Infinity Cholesterol (ThermoTrace).” left out

[4] = test system: human monocyte THP-1 cells; experiment: Transwell migration assay, THP-1; assay type: cell-based; conditions: 10 ng/ml in lower chamber, 2 hours, vs buffer alone or full-length OPN
Protocol: (§2) Monocyte cell migration was quantified in 24-well transwell inserts with polycarbonate filters (8-μm pore size) (Corning Costar). THP-1 monocytes (0.5×10^4 in 100 μl of RPMI 1640 medium) or murine blood cells from ApoE^-/- mice (25 μl in 75 μl of RPMI 1640 medium) were added to the upper chamber of the insert. The lower chamber contained 600 μl of RPMI 1640 with or without 10ng/ml tcOPN or OPN protein. The plates were incubated at 37° C. in 5% CO2 during 2 hours and migrated cells in the lower chamber were counted using flow cytometry. Blood monocytes were characterized with the monocyte FACS panel described above. In blocking experiment, tcOPN protein were pre-incubated with plasma (dilution 1:100) pooled from PADRE ctrl mice or tcOPN-PADRE mice over night at 4° C. prior to the migration experiment.

[5] = test system: Blood monocytes from ApoE-/- mice (CD11b+); experiment: Transwell migration assay, blood monocytes; assay type: cell-based; conditions: 10 ng/ml in lower chamber, 2 hours, vs buffer alone
Protocol: as §2

Substance: AKFVAAWTLKAAA (PADRE)
- Antibodies (IgG) against the tcOPN-PADRE peptide [1]: did not develop antibodies
- Antibodies recognizing PADRE peptide [1]: low levels
- Plasma IFNγ (ApoE-/- mice [2]; 8 week HFD): 312 ± 225 pg/mL
- Plasma IL-2 (ApoE-/- mice [2]; 8 week HFD): 45 ± 15 pg/mL
- Plasma IL-5 (ApoE-/- mice [2]; 8 week HFD): 111 ± 56 pg/mL
- Plasma IL-6 (ApoE-/- mice [2]; 8 week HFD): 33 ± 35 pg/mL
- Plasma IL-10 (ApoE-/- mice [2]; 8 week HFD): 77 ± 32 pg/mL
- Plasma IL-13 (ApoE-/- mice [2]; 8 week HFD): 234 ± 129 pg/mL
- Plasma IL-17 (ApoE-/- mice [2]; 8 week HFD): 162 ± 62 pg/mL
- Plasma TNFα (ApoE-/- mice [2]; 8 week HFD): 26 ± 0 pg/mL
- Plasma MCP-1 (ApoE-/- mice [2]; 8 week HFD, * significant difference PADRE vs tcOPN-PADRE): 835 ± 187 pg/mL
- Plasma IFNγ (ApoE-/- mice [2]; 15 week HFD): 48 ± 24 pg/mL
- Plasma IL-2 (ApoE-/- mice [2]; 15 week HFD): 43 ± 21 pg/mL
- Plasma IL-4 (ApoE-/- mice [2]; 15 week HFD): 21 ± 7 pg/mL
- Plasma IL-5 (ApoE-/- mice [2]; 15 week HFD): 110 ± 32 pg/mL
- Plasma IL-6 (ApoE-/- mice [2]; 15 week HFD): 28 ± 11 pg/mL
- Plasma IL-10 (ApoE-/- mice [2]; 15 week HFD): 172 ± 64 pg/mL
- Plasma IL-13 (ApoE-/- mice [2]; 15 week HFD): 1153 ± 439 pg/mL
- Plasma IL-17 (ApoE-/- mice [2]; 15 week HFD): 148 ± 27 pg/mL
- Plasma MCP-1 (ApoE-/- mice [2]; 15 week HFD): 703 ± 386 pg/mL
- Plasma TNFα (ApoE-/- mice [2]; 15 week HFD): 712 ± 249 pg/mL

Substance: AKFVAAWTLKAAAGRGDSLAYGLR (PADRE-tcOPN short) [short tcOPN-PADRE peptide]
- Plaque area in the aortic arch, en face preparations (ApoE-/- mice [3]): smaller plaque area
- Subvalvular plaque area (ApoE-/- mice [3]): recapitulated the difference

Substance: tcOPN: recombinant OPN cleaved with thrombin, C-terminal fragment removed (SLAYGLR)
- Monocyte migration towards the protein [4]: increased migration
- Monocyte migration towards the protein [5]: increased migration
